# Assay results: ChEMBL document CHEMBL1201862, “PubChem BioAssay data set” (2004)
# Calls of active or inactive are those of the source.
# Tests used:
# [1] = biological target: T1, 1-phosphatidylinositol 4,5-bisphosphate phosphodiesterase gamma-1 (Homo sapiens, UniProt P19174); experiment: Counterscreen for inhibitors of phospholipase C isozymes (PLC-B3): Fluorescence-based biochemical high throughput dose response assay to identify inhibitors of phospholipase C isozymes (PLC-gamma1).
# T1 sequence (P19174 whole entry): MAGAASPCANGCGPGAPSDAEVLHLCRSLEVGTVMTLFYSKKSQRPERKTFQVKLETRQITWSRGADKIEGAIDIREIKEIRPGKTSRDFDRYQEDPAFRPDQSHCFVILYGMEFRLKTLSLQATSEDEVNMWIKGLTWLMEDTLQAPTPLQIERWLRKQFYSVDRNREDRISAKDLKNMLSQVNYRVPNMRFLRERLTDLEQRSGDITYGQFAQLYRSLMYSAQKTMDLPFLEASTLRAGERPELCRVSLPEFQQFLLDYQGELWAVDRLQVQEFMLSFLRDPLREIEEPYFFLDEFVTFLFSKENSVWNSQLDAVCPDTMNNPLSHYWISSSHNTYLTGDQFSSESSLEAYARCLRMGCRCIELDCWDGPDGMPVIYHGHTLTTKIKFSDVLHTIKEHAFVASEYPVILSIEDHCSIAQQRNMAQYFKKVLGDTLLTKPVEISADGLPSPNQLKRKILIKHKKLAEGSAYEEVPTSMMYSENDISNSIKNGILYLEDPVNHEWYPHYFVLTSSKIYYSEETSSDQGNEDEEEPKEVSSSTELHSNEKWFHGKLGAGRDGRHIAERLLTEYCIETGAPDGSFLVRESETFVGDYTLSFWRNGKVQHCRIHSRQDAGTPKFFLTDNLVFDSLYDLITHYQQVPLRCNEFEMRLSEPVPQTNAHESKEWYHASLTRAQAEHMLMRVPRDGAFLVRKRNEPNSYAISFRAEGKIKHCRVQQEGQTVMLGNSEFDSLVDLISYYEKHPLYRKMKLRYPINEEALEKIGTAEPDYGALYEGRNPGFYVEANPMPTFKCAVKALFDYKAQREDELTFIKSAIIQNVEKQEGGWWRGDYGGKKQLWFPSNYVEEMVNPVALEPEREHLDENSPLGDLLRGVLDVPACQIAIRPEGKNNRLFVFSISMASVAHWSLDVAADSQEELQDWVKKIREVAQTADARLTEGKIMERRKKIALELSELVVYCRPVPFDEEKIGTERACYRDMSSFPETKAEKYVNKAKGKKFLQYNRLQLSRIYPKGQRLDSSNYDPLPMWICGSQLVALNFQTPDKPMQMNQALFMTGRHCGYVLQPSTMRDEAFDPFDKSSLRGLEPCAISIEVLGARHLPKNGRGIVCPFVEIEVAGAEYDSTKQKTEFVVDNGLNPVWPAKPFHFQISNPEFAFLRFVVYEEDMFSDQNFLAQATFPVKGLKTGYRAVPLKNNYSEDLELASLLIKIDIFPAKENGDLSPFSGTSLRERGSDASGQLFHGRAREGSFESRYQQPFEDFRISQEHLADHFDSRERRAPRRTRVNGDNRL
# [2] = biological target: Bifunctional protein GlmU (Mycobacterium tuberculosis, UniProt P9WMN3); experiment: Inhibitors of Mycobacterial Glucosamine-1-phosphate acetyl transferase (GlmU). Secondary screen.; set-up: species or system Mycobacterium tuberculosis H37Rv
# [3] = biological target: Nonstructural protein 1 (Influenza A virus, UniProt Q194T2); assay type: functional, Influenza A virus (A/California/07/2009(H1N1))
# Chain of Nonstructural protein 1 (Q194T2 whole entry): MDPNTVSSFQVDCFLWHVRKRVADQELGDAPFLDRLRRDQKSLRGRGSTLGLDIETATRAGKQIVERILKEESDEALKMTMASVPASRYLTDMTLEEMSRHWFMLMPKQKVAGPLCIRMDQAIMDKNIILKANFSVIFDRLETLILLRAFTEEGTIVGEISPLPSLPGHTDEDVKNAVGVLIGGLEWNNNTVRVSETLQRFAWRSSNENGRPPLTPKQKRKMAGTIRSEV
# Chain of Bifunctional protein GlmU (P9WMN3 whole entry): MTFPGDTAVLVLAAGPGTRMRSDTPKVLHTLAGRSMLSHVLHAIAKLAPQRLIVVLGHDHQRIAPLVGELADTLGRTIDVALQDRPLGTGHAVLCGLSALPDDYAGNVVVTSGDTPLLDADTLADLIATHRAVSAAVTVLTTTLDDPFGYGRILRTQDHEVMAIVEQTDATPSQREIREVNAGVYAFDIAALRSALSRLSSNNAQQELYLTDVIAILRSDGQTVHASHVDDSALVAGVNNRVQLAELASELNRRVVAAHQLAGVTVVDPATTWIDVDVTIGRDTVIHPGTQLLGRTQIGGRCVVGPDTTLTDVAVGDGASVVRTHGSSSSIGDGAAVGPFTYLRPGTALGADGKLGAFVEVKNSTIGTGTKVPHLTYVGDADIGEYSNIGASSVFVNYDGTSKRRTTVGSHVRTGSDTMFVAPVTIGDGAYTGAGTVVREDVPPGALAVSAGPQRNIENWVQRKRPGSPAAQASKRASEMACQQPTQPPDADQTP
structure (smiles),measurement,setting,value
Oc1ccc(/C=N/NC(=S)Nc2cccnc2)c(O)c1O,IC50,[1],> 122 µM (inactive)
same,IC50,[2],83 µM (active)
same,IC50,[3],3.58 µM (active)
